Reference: patent publication US9796674B2, “Benzyl urea derivatives for activating TGF-beta signaling” (THE BOARD OF TRUSTEES OF THE LELAND STANFORD JUNIOR …, priority 2013, dated 2017)
≈ marks a conversion by molar mass, not a printed value. Where two headings read alike, the source gives them in different places.

What was measured:
N2A-APP-Swe cells = experiment: Neurotoxicity of macrophage-conditioned medium (MTS assay); type: cell-based, mouse
Description: FIGS. 4A and 4B present data from experiments in which human macrophages differentiated from THP-1 monocytic cell lines and mouse J774A.1 macrophages were incubated with fibrillar Aβ in the absence or presence of compound (2 or 5 μM) for 24 h. Conditioned medium was harvested and the remaining Aβ was quantified by Aβ ELISA. The collected medium (FIGS. 4C-4D) was added to N2A-APP-Swe cells (mouse Neuro-2A neuroblastoma cells stably expressing Swedish APP695) and incubated for 24 h. Neurotoxicity was quantified by an MTS Assay.
Mouse J774A.1 macrophages and human macrophages that were differentiated from THP-1 monocytic cell lines were treated with fibrillar Aβ42 in the absence or presence of SRI-011382 or its derivative compounds (2, 5, or 10 μM) for 24 h. Conditioned medium was harvested and the remaining Aβ42 that was not phagocytosed by macrophages was quantified by Aβ42 ELISA kit (Invitrogen). Data was normalized to control medium containing the input amount of Aβ42. Neurotoxicity induced by fibrillar Aβ42 in the conditioned medium was then assessed by incubating Neuro-2a neuroblastoma cells with conditioned medium for 24 h followed by MTS-based viability assay. Data was normalized to control cells without fibrillar Aβ42 treatment.

Solubility = type: physicochemical; settings: aqueous buffer; in PBS
[1] = Cytotoxicity in primary rat hepatocytes; type: cell-based; settings: rat
Description: In Vitro Cytotoxicity: The cytotoxicity of SRI-011381 was determined in primary rat hepatocytes and in VERO cells.
Rat hepatocytes were isolated by collagenase perfusion and allowed to form a monolayer overnight. The test compounds were added to the cells in 5 concentrations up to 250 μM. Cells were incubated with the test article for 20 h and then toxicity determined by the MTT cytotoxicity screen. Toxicity was evaluated against the vehicle control (DMSO) and a positive control, amitriptylin, was included with each experiment.

[2] = Single-dose pharmacokinetics in female FVB mice; type: in vivo, mouse; settings: for Kp at 4 h: read-out: Brain to Plasma concentration ratio at 4 h
Description: Pharmacokinetics of SRI-011381 after single intravenous, intraperitoneal, or oral administration in female FVB mice: The objective of this study was to determine the single-dose pharmacokinetics of SRI-011381 in plasma and brain. Female FVB/NJ mice were administered the test article by intravenous (iv, 10 mg/kg), intraperitoneal (ip, 30 mg/kg), and oral gavage (po, 50 mg/kg) dose routes. The compound was formulated in 10% DMSO:15% Solutol:75% sterile water. Plasma and brain were collected at various time points up to 24 h and analyzed by LC/MS for determination of SRI-011381 levels. FIGS. 7A and 7B summarize SRI-011381 levels in plasma and brain, and Tables 4 and 5 list the results of the pharmacokinetic analysis.

[3] = Repeat dose range finding toxicity study in APP751LonSwe transgenic mice; type: in vivo; settings: both sexes, APP751LonSwe transgenic, C57Bl/6 background, mouse, in vivo; oral, 3 times per week for 2 weeks; read-out: maximum tolerated dose (MTD)
Description: (§1) Determination of the maximum tolerated dose of SRI-011381 in APP transgenic mice on a C57Bl/6 genetic background: A repeat dose range finding toxicity study was also performed in APP751^LonSwe transgenic mice to select doses for evaluation in the efficacy study. Compound SRI-011381 was dissolved in a vehicle containing 15% solutol and 85% water. The formulated compound was administered orally to APP751^LonSwe transgenic mice at 0 (vehicle only), 10, 30, 60, or 100 mg/kg of body weight 3 times a week for 2 weeks (this is the regimen intended to be used for the preclinical treatment study in these mice). Five mice (3 male and 2 female) were used for each dosage group. The starting ages of the mice ranged from 4.4 to 6.1 months. Serum and whole blood samples were collected at the end of the study and subjected to clinical chemistry and hematology analysis.

[4] = system: APP751LonSwe transgenic mice; experiment: as above; type: in vivo; settings: oral 10, 30, 60, or 100 mg/kg 3 times a week for 2 weeks
Description: as §1

[5] = female, FVB/NJ, mouse, brain, ip, 30 mg/kg
[6] = female, FVB/NJ, mouse, brain, iv, 10 mg/kg
[7] = female, FVB/NJ, mouse, brain, po, 50 mg/kg
[8] = female, FVB/NJ, mouse, plasma, ip, 30 mg/kg
[9] = female, FVB/NJ, mouse, plasma, iv, 10 mg/kg
[10] = female, FVB/NJ, mouse, plasma, po, 50 mg/kg

O=C(NC1CCCCC1)N(Cc1ccccc1)CC1CCNCC1 [SRI-011381, 1-Benzyl-3-cyclohexyl-1-(piperidin-4-ylmethyl)urea]
fibrillar Aβ42-induced neurotoxicity (N2A-APP-Swe cells; medium conditioned by J774A.1 macrophages): protect human neuronal cells from fibrillar Aβ42-induced neurotoxicity | fibrillar Aβ42-induced neurotoxicity (N2A-APP-Swe cells; medium conditioned by THP-1 macrophages): protect human neuronal cells from fibrillar Aβ42-induced neurotoxicity | solubility (Solubility): 5200 µg/mL (≈ 15.8 mM) | CC50 at 20 h [1]: > 100 µM | Kp ([2]; female, FVB/NJ, mouse, brain, intraperitoneal, time points after about 0.5 h (iv) and about 1.5 h (po and ip), read-out: brain-to-plasma concentration ratio): > 0.5 | Cmax [2, 5]: 348 ± 33 ng/mL | Tmax [2, 5]: 15 min | Kp at 4 h [2, 5]: 1.65 | Cmax [2, 6]: 231 ± 106 ng/mL | Tmax [2, 6]: 15 min | Kp at 4 h [2, 6]: 12.5 | Cmax [2, 7]: 157 ± 16 ng/mL | Tmax [2, 7]: 60 min | Kp at 4 h ([2]; female, FVB/NJ, mouse, brain, po, 50 mg/kg, p.o.): 0.89 | Kp ([2]; female, FVB/NJ, mouse, brain/plasma, ip, 30 mg/kg, values at the brain T, read-out: Brain-to-plasma ratio): 0.07 | Kp ([2]; female, FVB/NJ, mouse, brain/plasma, iv, 10 mg/kg, values at the brain T, read-out: Brain-to-plasma ratio): 0.28 | Kp ([2]; female, FVB/NJ, mouse, brain/plasma, po, 50 mg/kg, values at the brain T, read-out: Brain-to-plasma ratio): 0.19 | clearance ([2]; female, FVB/NJ, mouse, plasma, intraperitoneal, extravascular estimates (ip and po) based on F, read-out: Cl (converted)): ~150 mL/min/kg | Vd ([2]; female, FVB/NJ, mouse, plasma, intraperitoneal, extravascular estimates (ip and po) based on F, read-out: apparent volume of distribution V): 8 to 13 L/kg | half-life ([2]; female, FVB/NJ, mouse, plasma, intravenous, intraperitoneal, oral, read-out: elimination half-life): < 60 min | AUC(0-inf) [2, 8]: 4160 ng·h/mL | AUC(0-t) [2, 8]: 4110 ± 214 ng·h/mL | Cmax [2, 8]: 6810 ± 720 ng/mL | Tmax [2, 8]: 4.98 min | half-life ([2]; female, FVB/NJ, mouse, plasma, ip, 30 mg/kg, read-out: t1/2 (converted)): 35.4 min | AUC(0-inf) [2, 9]: 1080 ng·h/mL | AUC(0-t) [2, 9]: 1070 ± 129 ng·h/mL | Cmax [2, 9]: 1170 ± 415 ng/mL | Tmax [2, 9]: 4.98 min | clearance ([2]; female, FVB/NJ, mouse, plasma, iv, 10 mg/kg, read-out: CI (clearance) (converted)): 154 mL/min/kg | half-life ([2]; female, FVB/NJ, mouse, plasma, iv, 10 mg/kg, read-out: t1/2 (converted)): 34.2 min | AUC(0-inf) [2, 10]: 2600 ng·h/mL | AUC(0-t) [2, 10]: 2600 ± 374 ng·h/mL | Cmax [2, 10]: 2950 ± 1240 ng/mL | Tmax [2, 10]: 10 min | bioavailability ([2]; female, FVB/NJ, mouse, plasma, po, 50 mg/kg, plasma, po, 50 mg/kg, read-out: F (oral bioavailability)): ~50% | half-life ([2]; female, FVB/NJ, mouse, plasma, po, 50 mg/kg, read-out: t1/2 (converted)): 58.2 min | AUC(0-t) ([2]; female, FVB/NJ, mouse, brain, ip, 30 mg/kg, AUC from 0.25 to 4 h): 740 ± 32 ng·h/mL | AUC(0-t) ([2]; female, FVB/NJ, mouse, brain, iv, 10 mg/kg, AUC from 0.25 to 4 h): 738 ± 89 ng·h/mL | AUC(0-t) ([2]; female, FVB/NJ, mouse, brain, po, 50 mg/kg, AUC from 0.5 to 4 h): 416 ± 33 ng·h/mL | CI (clearance) ([2]; plasma, ip, 30 mg/kg): 154.3 mL/min/kg | F ([2]; plasma, ip, 30 mg/kg): 128% | V ([2]; plasma, ip, 30 mg/kg): 7.875 L/kg | F ([2]; plasma, iv, 10 mg/kg): 100% | V ([2]; plasma, iv, 10 mg/kg): 7.669 L/kg | V ([2]; plasma, po, 50 mg/kg): 13.012 L/kg | MTD at 2 weeks [3]: > 100 mg/kg | body weight [4]: no significant differences in body weight | clinical chemistry or hematology parameters [4]: no statistically significant changes
